Test results as given in US11453640B2, “Small molecules for disrupting the super elongation complex and inhibiting transcription elongation for cancer therapy” (NORTHWESTERN UNIVERSITY, priority 2018, dated 2022).

What was measured:
[1] = tested on: SEC components AFF1 and AFF4; assay: Western blotting of SEC and P-TEFb component protein levels in treated cells; assay type: cell-based, human; conditions: HEK293T and HCT-116 cells, 20 μM, 6 hr
Text: FIG. 1. Peptidomimetic identification of disruptors of the AFF4-CCNT1 interaction within the Super Elongation Complex. (A) Schematic for the identification of small molecule inhibitors of the AFF4-CCNT1 interaction using in silico high-throughput screening. Compounds from the ZINC database were docked with the AFF4-CCNT1 structure (4IMY) using a three-tier glide-docking algorithm, which led to 40 candidates. Residues forming the deep binding pocket of CCNT1 are labeled orange and residues of the AFF4 peptide are labeled red. (B) Validation screening identified KL-1 as a potential SEC disruptor using AlphaLISA screening. […] The Ki constants of both compounds were measured with the AlphaLISA assays. […] 5 μl, 10 and 20 μl cell lysates were loaded and the protein levels of AFF1, AFF4, CCNT1, CDK9 and Tubulin (load control) were determined by western blotting.
FIG. 8, related to FIG. 1. […] 293T cells were treated with 20 μM of KL-1 or KL-2 for 6 hr, and the protein levels of BRD2, BRD4, Pol II (RPB1), SPT5, MED26, MYC, HSP90 (load control) and Tubulin (load control) were measured by western blotting. […] HCT-116 cells were treated with 20 μM of KL-1 or KL-2 for 6 hr, and the protein levels of AFF1, AFF4, CCNT1, CDK9 and Tubulin (load control) were determined by western blotting. […] The log2CPM (counts per million) of the SEC subunits were calculated with HTseq. […]

[2] = tested on: heat shock responsive genes in Drosophila S2 cells; assay: Heat shock induction in Drosophila S2 cells; assay type: cell-based; conditions: 20 μM
Protocol: FIG. 5. SEC inhibitors block transcription elongation in SEC-dependent rapid response models. (A-B) Genome browser tracks of Pol II ChIP-seq at the FOS, HSPD1 and HSPE1 genes after 1 hr heat shock of HCT-116 cells treated with vehicle (DMSO) or the indicated SEC inhibitors. HCT-116 cells were pretreated with inhibitors for 5 hr at 37° C. before exchanging medium with conditioned 42° C. medium. Dark and light colors indicate the 37 and 42° C. conditions, respectively. (C) Genome-wide identification of heat shock-induced genes with fold change of reads per million in gene bodies and pausing index. Red dots are the 136 heat shock-induced genes according to Pol II signals (fold change of reads per million in gene bodies >1.5 and pausing index decreased >1.5-fold in the DMSO-treated condition). […] Box plot analysis depicts the log2 fold changes of reads per million in gene bodies (E) (y axis) after heat shock with pretreatment of vehicle or SEC inhibitors. […] S2 cells were heat shocked at 37° C. with and without 20 μM SEC inhibitors for 6 hr (left panel). The statistical analysis was performed with the Wilcoxon test.
Heat Shock Induction. Heat shock of mammalian cells was performed using ˜70-80% confluent HCT-116 cells by adding pre-heated (42° C.) conditioned media collected from identically growing cells (Mahat et al., 2016b). The heat shock cells were incubated at 42° C. for 1 hour. […]

Q: With COc1cccc(C(=O)CC(=O)C(=O)Nc2cc(Cl)ccc2C)c1 [KL-1, N-(5-chloro-2-methylphenyl)-4-oxo-4-(3-methoxyphenyl)-2-oxobutanamide] as the molecule, how does the “protein levels of CCNT1, CDK9, Pol II, BRD2 and BRD4” value [1] read?
A: no major effect

Q: What about the “protein levels of SEC components AFF1 and AFF4” value [1] of the same molecule?
A: led to depletion of SEC components AFF1 and AFF4

Q: What about the “heat shock induction of the 215 heat shock responsive genes” value [2] of the same molecule?
A: attenuated heat shock induction
